Results as given in patent US4345938A, “Herbicidal 2-haloacetanilides” (Monsanto Company, priority 1980, dated 1982).

Legend:
Format in all cases: in vivo
Hemp Sesbania = experiment: Pre-emergent herbicidal test, Hemp Sesbania; conditions: Table II; further: ranges in brackets are in %
Excerpt: (§1) A good grade of top soil is placed in aluminum pans and compacted to a depth of three-eights to one-half inch from the top of the pan. On the top of the soil is placed a number of seeds or vegetative propagules of various plant species. The soil required to level fill the pans after seeding or adding vegetative propagules is weighted into a pan. The soil and a known amount of the active ingredient applied in a solvent or as a wettable powder suspension are thoroughly mixed, and used to cover the prepared pans. After treatment, the pans are moved into a greenhouse bench where they are watered by subirrigation as needed to give adequate moisture for germination and growth.
(§2) Approximately 2 weeks after seeding and treating, the plants were observed and the results recorded. The herbicidal rating was obtained by means of a fixed scale based on the percent injury of each plant species. The ratings are defined as follows: […]
(§3) The compounds were further tested by utilizing the above procedure on the following plant species: […]

Echinochloa crus-galli = experiment: Upland seeded rice greenhouse test, barnyardgrass
Description: (§4) In another comparative test in the greenhouse, the compound of Example 2 and Compound B were tested in Upland seeded rice. […] In contrast, Compound A, (a commercial rice herbicide), required 0.14 kg/ha (0.125 lb/A) to selectively control the same weed with rice safety also maintained at 1.12 kg/ha resulting in a selectivity factor of at least 8, i.e., less than one-half that of the compound of Example 2.

Upland seeded rice = Upland seeded rice greenhouse test, rice safety; conditions: in vivo
Description: as §4

Yellow Nutsedge = experiment: Pre-emergent herbicidal test, Yellow Nutsedge; conditions: Table I; further: ranges in brackets are in %
Excerpt: as §1, §2

Wheat = experiment: Pre-emergent herbicidal test, Wheat; conditions: Table II; further: ranges in brackets are in %
Excerpt: as §1, §2, §3

Panicum Spp. = experiment: Pre-emergent herbicidal test, Panicum Spp.; further: ranges in brackets are in %; conditions: Table II
Excerpt: as §1, §2, §3

Wild Buckwheat = experiment: Pre-emergent herbicidal test, Wild Buckwheat; conditions: Table II; further: ranges in brackets are in %
Excerpt: as §1, §2, §3

Johnsongrass = experiment: Pre-emergent herbicidal test, Johnsongrass; conditions: Table I; further: ranges in brackets are in %
Excerpt: as §1, §2

Downy Brome [1] = experiment: Sugarbeet greenhouse test, DB; conditions: in sugarbeets
Excerpt: (§5) In the discussion of data below, occasional reference is made to herbicide application rates symbolized as "GR15 " and "GR85 "; these rates are given in kilograms per hectare (kg/ha) which are convertible into pounds per acre (lbs/A) by dividing the kg/ha rate by 1.12.
(§6) A further guide to the effectiveness of a chemical as a selective herbicide is the "selectivity factor" ("SF") for a herbicide in given crops and weeds. The selectivity factor is a measure of the relative degree of crop safety and weed injury and is expressed in terms of the GR15 /GR85 ratio, i.e., the GR15 rate for the crop divided by the GR85 rate for the weed, both rates in kg/ha (lb/A.)
(§7) In further tests in the greenhouse, the compound of Example 2 was tested for its activity against annual weeds in sugarbeets at test rates within the range of 0.07 to 1.12 kg/ha (0.0625 to 1.0 lb/A). The GR15 and GR85 rates for sugarbeets and the various weeds are shown in Table VI; the selectivity factors for the herbicide against the weeds in sugarbeets are shown in parentheses below the weeds; "NS" means non-selective within the test limits. The following abbreviations are used in the table: barnyardgrass (BYG), wild oats (WO), downy brome (DB); redroot pigweed (RRP), blackgrass (BG), large crabgrass (LCG) and yellow foxtail (YFT).

Rice = experiment: Pre-emergent herbicidal test, Rice; conditions: Table II; further: ranges in brackets are in %
Excerpt: as §1, §2, §3

redroot pigweed = experiment: Sugarbeet greenhouse test, RRP; conditions: in sugarbeets
Excerpt: as §5, §6, §7

Sorghum = experiment: Pre-emergent herbicidal test, Sorghum; conditions: Table II; further: ranges in brackets are in %
Excerpt: as §1, §2, §3

Cocklebur = experiment: Pre-emergent herbicidal test, Cocklebur; further: ranges in brackets are in %
Excerpt: as §1, §2

Soybean = experiment: Pre-emergent herbicidal test, Soybean; conditions: Table II; further: ranges in brackets are in %
Excerpt: as §1, §2, §3

Barnyardgrass = experiment: Pre-emergent herbicidal test, Barnyardgrass; further: ranges in brackets are in %
Excerpt: as §1, §2

Lambsquarters = experiment: Pre-emergent herbicidal test, Lambsquarters; further: ranges in brackets are in %
Excerpt: as §1, §2

Downy Brome [2] = experiment: Pre-emergent herbicidal test, Downy Brome; further: ranges in brackets are in %
Excerpt: as §1, §2

SMILES: CCCCOc1cccc(CC)c1N(CC)C(=O)CCl [Example 2, N-ethyl-2'-n-butoxy-6'-ethyl-2-chloroacetanilide]
- Rating, Hemp Sesbania (Hemp Sesbania; 0.01 kg/h): 0 (0-24)
- Rating, Hemp Sesbania (Hemp Sesbania; 0.06 kg/h): 0 (0-24)
- Rating, Hemp Sesbania (Hemp Sesbania; 0.28 kg/h): 0 (0-24)
- Rating, Hemp Sesbania (Hemp Sesbania; 1.12 kg/h): 2 (50-74)
- Rating, Hemp Sesbania (Hemp Sesbania; 5.6 kg/h): 2 (50-74)
- rate for selective control of Echinochloa crus-galli (Echinochloa crus-galli; Upland seeded rice, greenhouse): 0.064 kg/ha
- selectivity factor, Echinochloa crus-galli in Upland seeded rice (Echinochloa crus-galli; Upland seeded rice, greenhouse): at least 17.5
- control of barnyardgrass (Echinochloa crus-galli; upland-seeded rice test, 0.0087 kg/ha (0.0078 lb/A)): 20%
- rate at which rice safety is maintained (Upland seeded rice): ≥ 1.12 kg/ha
- Rating, Yellow Nutsedge (Yellow Nutsedge; 5.6 kg/h): 3 (75-100)
- Rating, Yellow Nutsedge (Yellow Nutsedge; 11.2 kg/h): 3 (75-100)
- Rating, Wheat (Wheat; 0.01 kg/h): 0 (0-24)
- Rating, Wheat (Wheat; 0.06 kg/h): 0 (0-24)
- Rating, Wheat (Wheat; 0.28 kg/h): 1 (25-49)
- Rating, Wheat (Wheat; 1.12 kg/h): 2 (50-74)
- Rating, Wheat (Wheat; 5.6 kg/h): 3 (75-100)
- Rating, Panicum Spp. (Panicum Spp.; 0.01 kg/h): 0 (0-24)
- Rating, Panicum Spp. (Panicum Spp.; 0.06 kg/h): 1 (25-49)
- Rating, Panicum Spp. (Panicum Spp.; 0.28 kg/h): 3 (75-100)
- Rating, Panicum Spp. (Panicum Spp.; 1.12 kg/h): 3 (75-100)
- Rating, Panicum Spp. (Panicum Spp.; 5.6 kg/h): 3 (75-100)
- Rating, Wild Buckwheat (Wild Buckwheat; 0.01 kg/h): 0 (0-24)
- Rating, Wild Buckwheat (Wild Buckwheat; 0.06 kg/h): 0 (0-24)
- Rating, Wild Buckwheat (Wild Buckwheat; 0.28 kg/h): 0 (0-24)
- Rating, Wild Buckwheat (Wild Buckwheat; 1.12 kg/h): 1 (25-49)
- Rating, Wild Buckwheat (Wild Buckwheat; 5.6 kg/h): 2 (50-74)
- Rating, Johnsongrass (Johnsongrass; 5.6 kg/h): 2 (50-74)
- Rating, Johnsongrass (Johnsongrass; 11.2 kg/h): 3 (75-100)
- GR85 Rate, DB (Downy Brome [1]): 0.14 Kg/Ha
- selectivity factor, DB (Downy Brome [1]): 4.0
- Rating, Rice (Rice; 0.01 kg/h): 0 (0-24)
- Rating, Rice (Rice; 0.06 kg/h): 0 (0-24)
- Rating, Rice (Rice; 0.28 kg/h): 1 (25-49)
- Rating, Rice (Rice; 1.12 kg/h): 3 (75-100)
- Rating, Rice (Rice; 5.6 kg/h): 3 (75-100)
- GR85 Rate, RRP (redroot pigweed): > 1.12 Kg/Ha
- selectivity factor, RRP (redroot pigweed): NS (non-selective within the test limits)
- Rating, Sorghum (Sorghum; 0.01 kg/h): 0 (0-24)
- Rating, Sorghum (Sorghum; 0.06 kg/h): 0 (0-24)
- Rating, Sorghum (Sorghum; 0.28 kg/h): 1 (25-49)
- Rating, Sorghum (Sorghum; 1.12 kg/h): 3 (75-100)
- Rating, Sorghum (Sorghum; 5.6 kg/h): 3 (75-100)
- Rating, Cocklebur (Cocklebur; Table I, 5.6 kg/h): 0 (0-24)
- Rating, Cocklebur (Cocklebur; Table I, 11.2 kg/h): 0 (0-24)
- Rating, Cocklebur (Cocklebur; Table II, 0.01 kg/h): 0 (0-24)
- Rating, Cocklebur (Cocklebur; Table II, 0.06 kg/h): 0 (0-24)
- Rating, Cocklebur (Cocklebur; Table II, 0.28 kg/h): 0 (0-24)
- Rating, Cocklebur (Cocklebur; Table II, 1.12 kg/h): 0 (0-24)
- Rating, Cocklebur (Cocklebur; Table II, 5.6 kg/h): 1 (25-49)
- Rating, Soybean (Soybean; 0.01 kg/h): 0 (0-24)
- Rating, Soybean (Soybean; 0.06 kg/h): 0 (0-24)
- Rating, Soybean (Soybean; 0.28 kg/h): 0 (0-24)
- Rating, Soybean (Soybean; 1.12 kg/h): 0 (0-24)
- Rating, Soybean (Soybean; 5.6 kg/h): 1 (25-49)
- Rating, Barnyardgrass (Barnyardgrass; Table I, 5.6 kg/h): 3 (75-100)
- Rating, Barnyardgrass (Barnyardgrass; Table I, 11.2 kg/h): 3 (75-100)
- Rating, Barnyardgrass (Barnyardgrass; Table II, 0.01 kg/h): 1 (25-49)
- Rating, Barnyardgrass (Barnyardgrass; Table II, 0.06 kg/h): 3 (75-100)
- Rating, Barnyardgrass (Barnyardgrass; Table II, 0.28 kg/h): 3 (75-100)
- Rating, Barnyardgrass (Barnyardgrass; Table II, 1.12 kg/h): 3 (75-100)
- Rating, Barnyardgrass (Barnyardgrass; Table II, 5.6 kg/h): 3 (75-100)
- Rating, Lambsquarters (Lambsquarters; Table I, 5.6 kg/h): 3 (75-100)
- Rating, Lambsquarters (Lambsquarters; Table I, 11.2 kg/h): 3 (75-100)
- Rating, Lambsquarters (Lambsquarters; Table II, 0.01 kg/h): 0 (0-24)
- Rating, Lambsquarters (Lambsquarters; Table II, 0.06 kg/h): 0 (0-24)
- Rating, Lambsquarters (Lambsquarters; Table II, 0.28 kg/h): 0 (0-24)
- Rating, Lambsquarters (Lambsquarters; Table II, 1.12 kg/h): 2 (50-74)
- Rating, Lambsquarters (Lambsquarters; Table II, 5.6 kg/h): 3 (75-100)
- Rating, Downy Brome (Downy Brome [2]; Table I, 5.6 kg/h): 3 (75-100)
- Rating, Downy Brome (Downy Brome [2]; Table I, 11.2 kg/h): 3 (75-100)
- Rating, Downy Brome (Downy Brome [2]; Table II, 0.01 kg/h): 0 (0-24)
- Rating, Downy Brome (Downy Brome [2]; Table II, 0.06 kg/h): 1 (25-49)
- Rating, Downy Brome (Downy Brome [2]; Table II, 0.28 kg/h): 3 (75-100)
- Rating, Downy Brome (Downy Brome [2]; Table II, 1.12 kg/h): 3 (75-100)
- Rating, Downy Brome (Downy Brome [2]; Table II, 5.6 kg/h): 3 (75-100)
